Measurements as given in patent US4301313A, “Halogenated ethynyl biphenyls” (Eli-Lilly and Company, priority 1974, dated 1981).
Values joined by “and” are separate entries in the source; they are usually repeats but may differ in a detail not shown here. Equal values may be shown once.

Key:
[1] = ultraviolet-induced erythema test, topical application in alcohol solution; assay type: in vivo, guinea pig; conditions: for Erythemic score, 1 Hr. after U.V. exposure / Erythemic score, 1.5 Hr. after U.V. exposure / Erythemic score, 2 Hr. after U.V. exposure / Erythemic score, 2.5 Hr. after U.V. exposure: unweighted; for Total erythemic score: control 78
Experimental: (§1) The compounds of the present invention were evaluated for anti-inflammatoryactivity by the ultraviolet-induced erythema blocking test. The test procedures were a modification of the Winder method (Winder, C. V.; Wax, J.; Burr, V.; Been, M.; and Posiere, C. E.: A Study of Pharmacological Influences on Ultraviolet Erythema in Guinea Pigs. Arch. Int. Pharmacodyn. 116: 261, 1958). Male albino guinea pigs weighing 240-300 gm. were used. The hair on the back was clipped and chemically depilated 15-18 hours before each experiment. The animals were fasted overnight, and on the day of the experiment, were randomized and placed in clear plastic partitioned holders 10×20 cm. wide and 15 cm. high.
(§2) The source of ultraviolet light was a Hanovia lamp (Kromayer-Model 10). A notebook reinforcement ring was placed upon the lens of the lamp to provide an area of contrast for grading purposes. The lens was then placed in contact with the skin of the guinea pig's back. Exposure time to UV was for a period of 4 seconds. Beginning one hour after exposure and thereafter at half-hour intervals for another 11/2 hours, the degree of resulting erythema was graded by an arbitrary scoring system based upon the degree of contrast and redness formed. Anti-inflammatory agents delay the development of the erythema and have their greatest effect at the initial grading periods. The scores were, therefore, weighted by factors of 4, 3, 2, and 1 at the 1.0, 1.5, 2.0, and 2.5 hour scoring times, respectively. The erythema was graded as follows:
(§3) Total scores from each treatment group of four guinea pigs were compared to the scores of the control group. The percent inhibition was calculated as follows: [formula] In the case of compounds showing inhibition, retesting was carried out at a plurality of doses to enable calculation of an ED50 for each such compound. "ED50 " designates that dose which provides 50% inhibition. Calculation of the ED50 was either by a standard linear regression method or by estimation from a dose-response curve of three or more points. The compounds so tested and their ED50 s were as follows:
(4-(2-Fluorophenyl)phenyl)acetylene was also evaluated for anti-inflammatory effect when applied topically. The test procedures were the same as those reported in Examples 29-52 except for three differences: the compound was applied topically in an alcohol solution immediately after exposure to the ultraviolet; scores were not weighted; and results were recorded only as percent inhibition.

[2] = ultraviolet-induced erythema test, compound administered 8 or 22 hours prior to exposure; assay type: in vivo, guinea pig; conditions: 0.5 mg./kg.; for Score 0.5 hours after exposure to ultraviolet: 0.5 h reading; for Score 1.0 hours after exposure to ultraviolet: 1.0 h reading; for Score 1.5 hours after exposure to ultraviolet: 1.5 h reading; for Score 2.0 hours after exposure to ultraviolet: 2.0 h reading; for Score 2.5 hours after exposure to ultraviolet: 2.5 h reading; for Score 3.0 hours after exposure to ultraviolet: 3.0 h reading
Experimental: as §1
The compounds to be tested were suspended in 1% methyl cellulose in water, utilizing a tissue homogenizer. The suspensions were administered orally in a volume of 2.0 ml./kg. of body weight. Control animals received an equal amount of the vehicle.
as §2, §3
(4-(2-Fluorophenyl)phenyl)acetylene was evaluated again by the procedures of Examples 29-52, except that the compound was administered 8 or 22 hours prior to exposure to ultraviolet light. The dose was uniformly 0.5 mg./kg. Readings were made at half-hour intervals beginning at one-half hour after exposure and ending at three and one-half hours after exposure. Scores were not weighted, and results were recorded only as percent inhibition.

[3] = control of inflammation in dogs (ultraviolet-induced erythema, abdominal skin); assay type: in vivo, dog
Experimental: (4-(2-Fluorophenyl)phenyl)acetylene was also evaluated for the control of inflammation in dogs. The testing procedures were the same as reported in the preceding examples except for these differences: a 10-second exposure time was used; non-pigmented abdominal skin was used; and the observed erythema was graded every half hour over a three-hour period with no weighting of scores. A placebo control was run with the same test dogs on the day prior to treatment.

[4] = adjuvant-induced arthritis test (paw volume); assay type: in vivo, rat (male albino); conditions: rat, oral
[5] = carrageenin induced test, compound administered about 20 hours prior; assay type: in vivo; conditions: rat, dose 10 (unit not given), about 20 hours prior to test
Experimental: Representative compounds were also evaluated for anti-inflammatory activity in the test method described by C. A. Winter at 111 Proc. Soc. Exp. Biol. Med., 544 (1962). In this method, inflammation is created by injecting carrageenin into the hind paw of rats. Test compounds are administered prior to injection to determine percent inhibition of the subsequent inflammation, in comparison with control animals.
Each of 4-biphenylylacetylene and (4-(2-fluorophenyl)phenyl)acetylene was evaluated again in the carrageenin induced test method reported in Examples 60-80. However, in these tests, the compound was administered about 20 hours prior to the test procedures.

[6] = antipyretic effect in yeast-induced fever; assay type: in vivo, rat
Experimental: (4-(2-Fluorophenyl)phenyl)acetylene was evaluated for antipyretic effect in rats. Fever was induced by subcutaneous injection of yeast, a technique reported at 54 J. Pharm. Exp. Ther. 346 (1935). A total of 24 rats was employed, divided into 6 treatment groups. One group was a normal control, without even the yeast injection. A second group served as a yeast control, receiving yeast injection but none of the test compound. All of the remaining groups received the test compound, in the following pattern: no yeast+100 mg./kg. of compound yeast+100 mg./kg. of compound yeast+50 mg./kg. of compound yeast+10 mg./kg. of compound The procedure was that yeast was administered to all rats at the same time, and temperatures were ascertained two hours later, at which time the test compound was administered to those groups assigned to receive it. Temperatures of all animals were also recorded thereafter at 1.0, 1.5, 2.0, 2.5, and 3.0 hours following administration of the test compound.

SMILES: C#Cc1ccc(-c2ccccc2F)cc1 [(4-(2-fluorophenyl)phenyl)acetylene]
- % Inhibition ([1]; 1 μg applied): 28%
- Erythemic score, 1 Hr. after U.V. exposure ([1]; 1 μg applied): 6
- Erythemic score, 1.5 Hr. after U.V. exposure ([1]; 1 μg applied): 13
- Erythemic score, 2 Hr. after U.V. exposure ([1]; 1 μg applied): 18
- Erythemic score, 2.5 Hr. after U.V. exposure ([1]; 1 μg applied): 19
- Total erythemic score ([1]; 1 μg applied): 56
- % Inhibition ([1]; 10 μg applied): 41%
- Erythemic score, 1 Hr. after U.V. exposure ([1]; 10 μg applied): 5
- Erythemic score, 1.5 Hr. after U.V. exposure ([1]; 10 μg applied): 10
- Erythemic score, 2 Hr. after U.V. exposure ([1]; 10 μg applied): 14
- Erythemic score, 2.5 Hr. after U.V. exposure ([1]; 10 μg applied): 17
- Total erythemic score ([1]; 10 μg applied): 46
- % Inhibition ([1]; 100 μg applied): 83%
- Erythemic score, 1 Hr. after U.V. exposure ([1]; 100 μg applied): 0
- Erythemic score, 1.5 Hr. after U.V. exposure ([1]; 100 μg applied): 1
- Erythemic score, 2 Hr. after U.V. exposure ([1]; 100 μg applied): 4
- Erythemic score, 2.5 Hr. after U.V. exposure ([1]; 100 μg applied): 8
- Total erythemic score ([1]; 100 μg applied): 13
- % Erythema Inhibition ([2]; 8 hours prior to exposure): 71%
- Score 0.5 hours after exposure to ultraviolet ([2]; 8 hours prior to exposure): 0
- Score 1.0 hours after exposure to ultraviolet ([2]; 8 hours prior to exposure): 0
- Score 1.5 hours after exposure to ultraviolet ([2]; 8 hours prior to exposure): 3
- Score 2.0 hours after exposure to ultraviolet ([2]; 8 hours prior to exposure): 6
- Score 2.5 hours after exposure to ultraviolet ([2]; 8 hours prior to exposure): 6
- Score 3.0 hours after exposure to ultraviolet ([2]; 8 hours prior to exposure): 15
- Total Score ([2]; 8 hours prior to exposure, control 104): 30
- % Erythema Inhibition ([2]; 22 hours prior to exposure): 41%
- Score 0.5 hours after exposure to ultraviolet ([2]; 22 hours prior to exposure): 3
- Score 1.0 hours after exposure to ultraviolet ([2]; 22 hours prior to exposure): 4
- Score 1.5 hours after exposure to ultraviolet ([2]; 22 hours prior to exposure): 8
- Score 2.0 hours after exposure to ultraviolet ([2]; 22 hours prior to exposure): 14
- Score 2.5 hours after exposure to ultraviolet ([2]; 22 hours prior to exposure): 17
- Score 3.0 hours after exposure to ultraviolet ([2]; 22 hours prior to exposure): 17
- Total Score ([2]; 22 hours prior to exposure, control 107): 63
- % Erythema Inhibition ([3]; dog No. 04, 5 mg/kg): 100%
- Total erythemic score ([3]; dog No. 04, 5 mg/kg, control 15): 0
- % Erythema Inhibition ([3]; dog No. 05, 1 mg/kg): 71%
- Total erythemic score ([3]; dog No. 05, 1 mg/kg, control 14): 4
- % Erythema Inhibition ([3]; dog No. 05, 10 mg/kg): 100%
- Total erythemic score ([3]; dog No. 05, 10 mg/kg, control 14): 0
- Percent Inhibition of Volume Increase, Day 7 ([4]; dose 1 (unit not given)): 27% and 22%
- Percent Inhibition of Volume Increase, Day 7 ([4]; dose 3 (unit not given)): 35% and 29%
- Percent Inhibition of Volume Increase, Day 7 ([4]; dose 10 (unit not given)): 30% and 23%
- Percent Inhibition of Volume Increase, Day 14 ([4]; dose 10 (unit not given), Day 14): 5% and 0%
- % Inhibition [5]: 42% and 60%
- Temperatures of rats receiving both yeast and test compound ([6]; 10, 50 and 100 mg./kg., all reading times): uniformly lower
- Temperature change in rats receiving no yeast injection ([6]; no yeast, 100 mg./kg.): some lowering of temperature occurred
- Statistical significance of temperature change in rats receiving no yeast ([6]; no yeast, 100 mg./kg., versus normal control and yeast control groups): not statistically significant
- Antipyretic action ([6]; rats, yeast fever, conclusion): exhibited antipyretic action
- Statistical significance of temperature differences, 1.5 hour reading ([6]; yeast rats, 50 mg./kg. and 100 mg./kg., 1.5 hour): not statistically significant
- Statistical significance of temperature differences, 1.0 hour reading ([6]; yeast rats, all dose levels, 1.0 hour): not statistically significant
- Statistical significance of temperature differences, all other doses ([6]; yeast rats, all other doses/readings): statistically significant
